Literature values as cited in patent publication US12455270B2, “Mesh for dissolution test” (Shionogi & Co., Ltd., priority 2019, dated 2025).

Columns and labels:
[1] = input parameter of GastroPlus simulation
[2] = input parameter of GastroPlus simulation; remark: listed apart in the source

logP [1]	CL [2] [L/h]	Plasma Fup [2] [%]	Vc [2] [L/kg]	k12 [2] [h⁻¹]	k21 [2] [h⁻¹]	Compound
4.21	28.558	2.1	1.0902	0.1955	0.07268	Cc1ccc(-c2cc(C(F)(F)F)nn2-c2ccc(S(N)(=O)=O)cc2)cc1 [Celecoxib]
1.8	0.9087	28.8	0.6971	0.165	–	NC(=O)N1c2ccccc2C=Cc2ccccc21 [Carbamazepine]
